# According to the supplement of paper PMC10307832:
# Tests used:
# Assay in all cases: relative viability (nuclei count vs DMSO), 5 days (fraction); higher = more cells survive
# NCI-H1650 = system: NCI-H1650
# Summary of the method: (§1)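 Dosing by pin tool came one day after lung cancer cell lines were seeded in 1536-well plates, using either one drug or a fixed anchor-drug dose plus five library-drug doses (not always all listed) in √10 steps. After 5 days, nuclei were counted on 4× images. Relative viability is treated-well nuclei count divided by vehicle-well nuclei count, and values are medians of duplicate plates.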
# SW 1573 = system: SW 1573
# Summary of the method: as §1
# COR-L23 = system: COR-L23
# Summary of the method: as §1
# LCLC-97TM1 = system: LCLC-97TM1
# Summary of the method: as §1
# NCI-H460 = system: NCI-H460
# Summary of the method: as §1
# HCC-15 = system: HCC-15
# Summary of the method: as §1
# 201T = system: 201T
# Summary of the method: as §1
# ChaGo-K-1 = system: ChaGo-K-1
# Summary of the method: as §1
# NCI-H650 = system: NCI-H650
# Summary of the method: as §1
# HCC-78 = system: HCC-78
# Summary of the method: as §1
# NCI-H441 = system: NCI-H441
# Summary of the method: as §1
# LOU-NH91 = system: LOU-NH91
# Summary of the method: as §1
# NCI-H2009 = system: NCI-H2009
# Summary of the method: as §1
# NCI-H2023 = system: NCI-H2023
# Summary of the method: as §1
# LCLC-103H = system: LCLC-103H
# Summary of the method: as §1
# NCI-H1648 = system: NCI-H1648
# Summary of the method: as §1
# NCI-H1734 = system: NCI-H1734
# Summary of the method: as §1
# A-427 = system: A-427
# Summary of the method: as §1
# NCI-H1993 = system: NCI-H1993
# Summary of the method: as §1
# HCC-366 = system: HCC-366
# Summary of the method: as §1
# HARA = system: HARA
# Summary of the method: as §1
# NCI-H2126 = system: NCI-H2126
# Summary of the method: as §1
# RERF-LC-KJ = system: RERF-LC-KJ
# Summary of the method: as §1
# HCC-44 = system: HCC-44
# Summary of the method: as §1
smiles,measurement,setting,value
CCCCCCCCCCCC1=C(O)C(=O)C=C(O)C1=O [Embelin] + Nc1nc2[nH]cc(CCc3ccc(C(=O)N[C@@H](CCC(=O)O)C(=O)O)cc3)c2c(=O)[nH]1 [Pemetrexed] (partner 0.2 µM),relative viability,NCI-H1650; first compound 0.08 µM,0.437
same,relative viability,NCI-H1650; first compound 0.8 µM,0.369
same,relative viability,NCI-H1650; first compound 2.53 µM,0.494
same,relative viability,NCI-H1650; first compound 8 µM,0.358
same,relative viability,SW 1573; first compound 0.08 µM,0.92
same,relative viability,SW 1573; first compound 0.8 µM,0.844
same,relative viability,SW 1573; first compound 2.53 µM,0.99
same,relative viability,SW 1573; first compound 8 µM,0.931
same,relative viability,COR-L23; first compound 0.08 µM,0.196
same,relative viability,COR-L23; first compound 0.8 µM,0.196
same,relative viability,COR-L23; first compound 2.53 µM,0.201
same,relative viability,COR-L23; first compound 8 µM,0.191
same,relative viability,LCLC-97TM1; first compound 0.08 µM,0.17
same,relative viability,LCLC-97TM1; first compound 0.8 µM,0.166
same,relative viability,LCLC-97TM1; first compound 2.53 µM,0.163
same,relative viability,LCLC-97TM1; first compound 8 µM,0.182
same,relative viability,NCI-H460; first compound 0.08 µM,0.0662
same,relative viability,NCI-H460; first compound 0.8 µM,0.072
same,relative viability,NCI-H460; first compound 2.53 µM,0.0629
same,relative viability,NCI-H460; first compound 8 µM,0.0617
same,relative viability,HCC-15; first compound 0.08 µM,0.226
same,relative viability,HCC-15; first compound 0.8 µM,0.24
same,relative viability,HCC-15; first compound 2.53 µM,0.233
same,relative viability,HCC-15; first compound 8 µM,0.207
same,relative viability,201T; first compound 0.08 µM,0.347
same,relative viability,201T; first compound 0.8 µM,0.326
same,relative viability,201T; first compound 2.53 µM,0.333
same,relative viability,201T; first compound 8 µM,0.299
same,relative viability,ChaGo-K-1; first compound 0.08 µM,0.264
same,relative viability,ChaGo-K-1; first compound 0.8 µM,0.258
same,relative viability,ChaGo-K-1; first compound 2.53 µM,0.249
same,relative viability,ChaGo-K-1; first compound 8 µM,0.251
same,relative viability,NCI-H650; first compound 0.08 µM,0.968
same,relative viability,NCI-H650; first compound 0.8 µM,1.17
same,relative viability,NCI-H650; first compound 2.53 µM,0.979
same,relative viability,NCI-H650; first compound 8 µM,0.954
same,relative viability,HCC-78; first compound 0.08 µM,0.924
same,relative viability,HCC-78; first compound 0.8 µM,0.895
same,relative viability,HCC-78; first compound 2.53 µM,0.982
same,relative viability,HCC-78; first compound 8 µM,0.949
same,relative viability,NCI-H441; first compound 0.08 µM,0.255
same,relative viability,NCI-H441; first compound 0.8 µM,0.261
same,relative viability,NCI-H441; first compound 2.53 µM,0.301
same,relative viability,NCI-H441; first compound 8 µM,0.274
same,relative viability,LOU-NH91; first compound 0.08 µM,0.357
same,relative viability,LOU-NH91; first compound 0.8 µM,0.385
same,relative viability,LOU-NH91; first compound 2.53 µM,0.381
same,relative viability,LOU-NH91; first compound 8 µM,0.466
same,relative viability,NCI-H2009; first compound 0.08 µM,1.08
same,relative viability,NCI-H2009; first compound 0.8 µM,1.09
same,relative viability,NCI-H2009; first compound 2.53 µM,1.06
same,relative viability,NCI-H2009; first compound 8 µM,1.01
same,relative viability,NCI-H2023; first compound 0.08 µM,0.206
same,relative viability,NCI-H2023; first compound 0.8 µM,0.244
same,relative viability,NCI-H2023; first compound 2.53 µM,0.226
same,relative viability,NCI-H2023; first compound 8 µM,0.249
same,relative viability,LCLC-103H; first compound 0.08 µM,0.49
same,relative viability,LCLC-103H; first compound 0.8 µM,0.485
same,relative viability,LCLC-103H; first compound 2.53 µM,0.449
same,relative viability,LCLC-103H; first compound 8 µM,0.458
same,relative viability,NCI-H1648; first compound 0.08 µM,0.682
same,relative viability,NCI-H1648; first compound 0.8 µM,0.675
same,relative viability,NCI-H1648; first compound 2.53 µM,0.776
same,relative viability,NCI-H1648; first compound 8 µM,0.662
same,relative viability,NCI-H1734; first compound 0.08 µM,0.434
same,relative viability,NCI-H1734; first compound 0.8 µM,0.447
same,relative viability,NCI-H1734; first compound 2.53 µM,0.414
same,relative viability,NCI-H1734; first compound 8 µM,0.401
same,relative viability,A-427; first compound 0.08 µM,0.993
same,relative viability,A-427; first compound 0.8 µM,1.07
same,relative viability,A-427; first compound 2.53 µM,0.963
same,relative viability,A-427; first compound 8 µM,0.502
same,relative viability,NCI-H1993; first compound 0.08 µM,0.609
same,relative viability,NCI-H1993; first compound 0.8 µM,0.568
same,relative viability,NCI-H1993; first compound 2.53 µM,0.581
same,relative viability,NCI-H1993; first compound 8 µM,0.554
same,relative viability,HCC-366; first compound 0.08 µM,0.161
same,relative viability,HCC-366; first compound 0.8 µM,0.149
same,relative viability,HCC-366; first compound 2.53 µM,0.151
same,relative viability,HCC-366; first compound 8 µM,0.236
same,relative viability,HARA; first compound 0.08 µM,0.292
same,relative viability,HARA; first compound 0.8 µM,0.279
same,relative viability,HARA; first compound 2.53 µM,0.256
same,relative viability,HARA; first compound 8 µM,0.208
same,relative viability,NCI-H2126; first compound 0.08 µM,0.735
same,relative viability,NCI-H2126; first compound 0.8 µM,0.636
same,relative viability,NCI-H2126; first compound 2.53 µM,0.654
same,relative viability,NCI-H2126; first compound 8 µM,0.69
same,relative viability,RERF-LC-KJ; first compound 0.08 µM,0.502
same,relative viability,RERF-LC-KJ; first compound 0.8 µM,0.498
same,relative viability,RERF-LC-KJ; first compound 2.53 µM,0.504
same,relative viability,RERF-LC-KJ; first compound 8 µM,0.474
same,relative viability,HCC-44; first compound 0.08 µM,0.634
same,relative viability,HCC-44; first compound 0.8 µM,0.632
same,relative viability,HCC-44; first compound 2.53 µM,0.599
same,relative viability,HCC-44; first compound 8 µM,0.699
